Laboratory results: ChEMBL document CHEMBL1201862, “PubChem BioAssay data set” (2004)
Active and inactive are the calls of the source. Rule as the data show it, for most assays here: actives have a measured IC50 and inactives only a lower limit.

Assays:
[1] = molecular target: Heat shock protein HSP 90-alpha (Homo sapiens, UniProt P07900); type: functional, organism-based
Caspase-3 [2] = molecular target: T1, Caspase-3 (Homo sapiens, UniProt P42574); type: functional;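 also: Dose-response selectivity test against caspase-3 for candidate inhibitors of sentrin-specific proteases (SENPs)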
T1 sequence (P42574 whole entry): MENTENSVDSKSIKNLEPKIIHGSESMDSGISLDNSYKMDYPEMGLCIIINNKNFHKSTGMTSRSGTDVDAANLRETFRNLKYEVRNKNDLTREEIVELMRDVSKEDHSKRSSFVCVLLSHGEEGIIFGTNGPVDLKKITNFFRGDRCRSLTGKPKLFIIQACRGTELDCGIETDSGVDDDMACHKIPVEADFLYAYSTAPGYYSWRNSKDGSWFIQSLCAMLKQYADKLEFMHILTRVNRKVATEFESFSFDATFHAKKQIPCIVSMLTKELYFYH

[3] = molecular target: T2, Sentrin-specific protease 6 (Homo sapiens, UniProt Q9GZR1); type: functional;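 also: Luminescence-based dose-response confirmatory assay of SENP6 inhibition, following up an ultra-high-throughput screen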
T2 sequence (Q9GZR1 whole entry): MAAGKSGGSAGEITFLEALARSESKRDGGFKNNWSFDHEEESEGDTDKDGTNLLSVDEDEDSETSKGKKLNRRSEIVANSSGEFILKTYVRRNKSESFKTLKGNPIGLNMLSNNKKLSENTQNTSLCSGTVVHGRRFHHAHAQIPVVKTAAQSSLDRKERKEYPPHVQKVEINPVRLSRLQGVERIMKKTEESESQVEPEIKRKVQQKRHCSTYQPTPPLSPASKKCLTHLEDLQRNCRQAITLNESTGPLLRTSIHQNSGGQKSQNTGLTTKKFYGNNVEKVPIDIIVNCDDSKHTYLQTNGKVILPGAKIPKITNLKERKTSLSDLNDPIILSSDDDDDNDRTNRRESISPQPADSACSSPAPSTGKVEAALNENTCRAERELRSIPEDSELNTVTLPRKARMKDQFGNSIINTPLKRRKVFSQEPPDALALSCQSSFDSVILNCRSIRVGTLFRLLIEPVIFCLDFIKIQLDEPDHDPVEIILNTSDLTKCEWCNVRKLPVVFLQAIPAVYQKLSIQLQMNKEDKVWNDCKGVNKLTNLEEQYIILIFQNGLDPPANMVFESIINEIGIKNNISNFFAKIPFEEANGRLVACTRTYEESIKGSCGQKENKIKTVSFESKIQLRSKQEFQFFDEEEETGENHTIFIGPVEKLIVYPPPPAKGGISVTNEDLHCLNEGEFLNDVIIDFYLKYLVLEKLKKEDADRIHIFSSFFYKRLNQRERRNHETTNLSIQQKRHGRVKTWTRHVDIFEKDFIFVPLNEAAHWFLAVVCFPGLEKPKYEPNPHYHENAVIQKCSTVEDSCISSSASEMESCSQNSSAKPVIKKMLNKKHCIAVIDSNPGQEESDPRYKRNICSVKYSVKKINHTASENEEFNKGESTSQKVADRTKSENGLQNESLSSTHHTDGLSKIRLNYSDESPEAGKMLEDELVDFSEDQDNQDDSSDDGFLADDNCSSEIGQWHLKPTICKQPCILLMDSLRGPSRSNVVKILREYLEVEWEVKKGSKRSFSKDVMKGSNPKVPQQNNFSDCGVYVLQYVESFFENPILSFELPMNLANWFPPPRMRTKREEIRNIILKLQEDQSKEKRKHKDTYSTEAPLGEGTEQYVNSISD

[4] = molecular target: T3, Sentrin-specific protease 7 (Homo sapiens, UniProt Q9BQF6); type: functional;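 also: Luminescence-based dose-response confirmation of ultra-high-throughput screening hits, measuring inhibition of SENP7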
T3 sequence (Q9BQF6 whole entry): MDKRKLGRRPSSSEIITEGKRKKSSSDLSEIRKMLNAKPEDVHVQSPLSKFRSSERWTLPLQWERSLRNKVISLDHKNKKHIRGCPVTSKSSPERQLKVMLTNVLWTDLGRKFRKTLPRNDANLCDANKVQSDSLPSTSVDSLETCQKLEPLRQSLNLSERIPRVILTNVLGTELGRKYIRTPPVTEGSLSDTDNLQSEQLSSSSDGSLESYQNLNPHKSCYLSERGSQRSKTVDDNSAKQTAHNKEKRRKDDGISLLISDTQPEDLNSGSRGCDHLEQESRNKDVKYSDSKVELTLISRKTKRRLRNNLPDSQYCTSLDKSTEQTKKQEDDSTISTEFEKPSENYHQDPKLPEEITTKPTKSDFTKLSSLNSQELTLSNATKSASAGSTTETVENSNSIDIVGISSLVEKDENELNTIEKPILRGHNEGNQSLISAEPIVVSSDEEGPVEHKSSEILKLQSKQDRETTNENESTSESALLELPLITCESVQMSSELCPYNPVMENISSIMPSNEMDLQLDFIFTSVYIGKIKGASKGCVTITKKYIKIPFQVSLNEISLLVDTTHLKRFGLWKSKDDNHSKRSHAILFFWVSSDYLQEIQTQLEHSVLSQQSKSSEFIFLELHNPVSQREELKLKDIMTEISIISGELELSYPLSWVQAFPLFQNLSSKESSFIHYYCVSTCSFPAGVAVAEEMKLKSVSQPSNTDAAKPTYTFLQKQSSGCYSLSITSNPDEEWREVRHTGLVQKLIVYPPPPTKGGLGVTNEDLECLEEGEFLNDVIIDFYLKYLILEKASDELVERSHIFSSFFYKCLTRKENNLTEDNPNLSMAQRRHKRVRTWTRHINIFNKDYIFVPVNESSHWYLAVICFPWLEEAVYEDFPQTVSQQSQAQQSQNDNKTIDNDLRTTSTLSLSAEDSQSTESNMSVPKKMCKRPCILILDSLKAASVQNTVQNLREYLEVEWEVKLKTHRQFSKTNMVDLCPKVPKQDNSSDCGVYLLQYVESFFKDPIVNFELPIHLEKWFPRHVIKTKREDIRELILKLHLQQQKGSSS

[5] = molecular target: T4, Sentrin-specific protease 8 (Homo sapiens, UniProt Q96LD8); type: functional;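 also: luminescence read-out of SENP8 inhibition, dose-response confirmation following an ultra-high-throughput screen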
T4 sequence (Q96LD8 whole entry): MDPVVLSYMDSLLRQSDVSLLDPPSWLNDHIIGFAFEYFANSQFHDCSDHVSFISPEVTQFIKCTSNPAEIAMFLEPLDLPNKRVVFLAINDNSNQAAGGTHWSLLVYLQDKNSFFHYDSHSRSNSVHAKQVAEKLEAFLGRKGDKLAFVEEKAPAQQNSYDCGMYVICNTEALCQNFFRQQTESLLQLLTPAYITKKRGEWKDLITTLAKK

cells [6] = type: functional, cell-based
cells [7] = type: functional, cell-based; remark: listed apart in the source
[8] = molecular target: T2, Sentrin-specific protease 6; test: SENP6 protease inhibitors, SAR follow-up, biochemical, luminescence, set 2 (AID 588598); type: functional
Caspase-3 [9] = molecular target: T1, Caspase-3; test: caspase-3 inhibitors as off-family protease, SAR follow-up, selectivity assay for SENP protease inhibitor project, biochemical, luminescence, set 2 (AID 588599); type: functional
[10] = molecular target: T3, Sentrin-specific protease 7; test: SENP7 protease inhibitors, SAR follow-up, biochemical, luminescence, set 2 (AID 588600); type: functional
[11] = molecular target: T4, Sentrin-specific protease 8; test: SENP8 protease inhibitors, SAR follow-up, biochemical, luminescence, set 2 (AID 588601); type: functional

SMILES	AC50 [1]	IC50 (Caspase-3 [2])	IC50 [3]	IC50 [4]	IC50 [5]	EC50 (cells [6])	EC50 (cells [7])	IC50 [8]	IC50 (Caspase-3 [9])	IC50 [10]	IC50 [11]
CCCCNc1nc(N)nc(-c2cc(Cl)ccc2O)n1	4.87 µM (active)	44.1 µM (active)	> 100 µM (inactive)	4.54 µM (active)	> 100 µM (inactive)	> 350 µM (not active)	3.49 µM (active)	–	–	–	–
COc1ccc2nc(NC(=O)c3ccccc3NS(=O)(=O)c3ccc4c(c3)OCCO4)sc2c1	–	–	–	–	–	–	–	> 99 µM (inactive)	> 99 µM (inactive)	> 99 µM (inactive)	> 99 µM (inactive)
